In brackets after ≈: the same amount, converted by molar mass. Several values for one entry are separate records, joined by “and”; a condition that tells them apart may be missing. Identical values can stand only once. Like-named read-outs stand apart in the source and are kept apart here.
Tests used:
[1] = test system: 11 β-hydroxysteroid dehydrogenase-2; set-up: method as in Blanford and Murphy, 1977; Murphy et al., 2007; details: ref Blanford and Murphy, 1977, Murphy et al., 2007; cited from earlier work
[2] = ref DrugBank database; cited from earlier work
P-gp [3] = molecular target: T1, P-gp (Homo sapiens, UniProt P08183); details: for ERP-gp ERTRQ(−) − ERTRQ(+): P-gp-mediated efflux ratio
T1 sequence (P08183 whole entry): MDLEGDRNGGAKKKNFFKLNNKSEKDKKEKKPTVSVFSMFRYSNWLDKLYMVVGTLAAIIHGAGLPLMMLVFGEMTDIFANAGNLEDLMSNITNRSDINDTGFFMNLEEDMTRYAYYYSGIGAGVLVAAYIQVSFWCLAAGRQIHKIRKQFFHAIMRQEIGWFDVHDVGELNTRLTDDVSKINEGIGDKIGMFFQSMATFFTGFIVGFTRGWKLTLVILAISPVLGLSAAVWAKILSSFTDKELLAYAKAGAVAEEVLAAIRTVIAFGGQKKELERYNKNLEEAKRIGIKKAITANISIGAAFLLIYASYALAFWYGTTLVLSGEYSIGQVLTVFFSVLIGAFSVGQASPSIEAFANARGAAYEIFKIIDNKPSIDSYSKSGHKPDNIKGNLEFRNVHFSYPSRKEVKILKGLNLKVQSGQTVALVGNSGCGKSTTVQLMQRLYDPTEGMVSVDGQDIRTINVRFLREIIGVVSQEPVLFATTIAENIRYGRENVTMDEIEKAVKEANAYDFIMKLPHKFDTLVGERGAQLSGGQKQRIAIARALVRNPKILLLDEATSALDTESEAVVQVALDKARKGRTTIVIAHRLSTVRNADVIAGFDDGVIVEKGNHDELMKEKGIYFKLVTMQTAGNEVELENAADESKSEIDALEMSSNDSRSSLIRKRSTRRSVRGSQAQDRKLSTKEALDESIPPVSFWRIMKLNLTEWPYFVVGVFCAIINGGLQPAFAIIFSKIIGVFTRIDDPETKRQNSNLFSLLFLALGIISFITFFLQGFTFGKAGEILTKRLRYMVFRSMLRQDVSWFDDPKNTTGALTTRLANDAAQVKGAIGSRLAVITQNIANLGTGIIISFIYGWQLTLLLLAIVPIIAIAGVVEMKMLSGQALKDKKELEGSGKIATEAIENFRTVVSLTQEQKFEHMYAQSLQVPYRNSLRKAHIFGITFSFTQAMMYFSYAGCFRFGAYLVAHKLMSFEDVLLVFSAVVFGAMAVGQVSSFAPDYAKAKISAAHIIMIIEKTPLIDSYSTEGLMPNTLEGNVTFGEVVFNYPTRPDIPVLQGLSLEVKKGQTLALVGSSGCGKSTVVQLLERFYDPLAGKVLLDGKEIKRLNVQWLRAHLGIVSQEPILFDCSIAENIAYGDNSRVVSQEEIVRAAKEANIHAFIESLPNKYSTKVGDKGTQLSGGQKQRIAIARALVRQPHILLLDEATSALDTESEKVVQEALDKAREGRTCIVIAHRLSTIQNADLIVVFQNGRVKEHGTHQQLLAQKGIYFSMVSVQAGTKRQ

placental P-gp = assay: m-f PBPK prediction of maternal-fetal pharmacokinetics at gestational week 20 (GW20); set-up: species or system human
Description: GW20 was chosen since this is the earliest gestational age at which all the fetal physiologic parameters (e.g., organ volumes, partition coefficients, blood flows) are available.

[4] = Estimation of in vivo transplacental passive diffusion clearance by scaling midazolam CLint,PD,placenta with Papp ratio; set-up: species or system human; details: at term, scaled from midazolam by Papp ratio
P-gp [5] = molecular target: T1, P-gp; assay: in vitro; details: MDCK-MDR1, pH 7.4
[6] = Observed or PopPK-model (published) maternal and fetal UV plasma pharmacokinetics in pregnant women; details: coadministered with RTV
[7] = in vivo, at term; ref Zhang and Unadkat, 2017; cited from earlier work
MDCKII or Caco-2 cells = details: determined in MDCKII or Caco-2 cells; ref Zhang and Unadkat, 2017; cited from earlier work

C[C@H]1C[C@H]2[C@@H]3CCC4=CC(=O)C=C[C@]4(C)[C@@]3(F)[C@@H](O)C[C@]2(C)[C@@]1(O)C(=O)CO [BET, betamethasone]
metabolized over 6 hours in vitro in placental microsomes [1]: 10%–15%

C[C@@H]1C[C@H]2[C@@H]3CCC4=CC(=O)C=C[C@]4(C)[C@@]3(F)[C@@H](O)C[C@]2(C)[C@@]1(O)C(=O)CO [DEX, dexamethasone]
metabolized over 6 hours in vitro in placental microsomes [1]: 10%–15%

CC(C)CN(C[C@@H](O)[C@H](Cc1ccccc1)NC(=O)O[C@H]1CO[C@H]2OCC[C@H]21)S(=O)(=O)c1ccc(N)cc1 [DRV, darunavir]
solubility [2]: 16 µM (≈ 8.76 µg/mL)

Cc1cccc(C)c1OCC(=O)N[C@@H](Cc1ccccc1)[C@@H](O)C[C@H](Cc1ccccc1)NC(=O)[C@H](C(C)C)N1CCCNC1=O [LPV, lopinavir]
ERP-gp ERTRQ(−) − ERTRQ(+) (P-gp [3]; Mean ± S.D. of 4 experiments): 83.1 ± 10.1 and 83.1 ± 10.05 | ERP-gp ERTRQ(−) − ERTRQ(+) (P-gp [3]; individual experiments (Exp no. 1-4)): 94.35 and 88.78 and 73.99 and 75.27 | ERTRQ(−) (P-gp [3]; efflux ratio without tariquidar, individual experiments (Exp no. 1-4, each in triplicate), 2 µM DEX, BET, DRV, 1 µM LPV): 95.37 and 90.07 and 75.63 and 76.57 | CLint,P-gp,placenta (placental P-gp; GW20, adjusted for total placental P-gp abundance): 617 L/h | CLint,PD,placenta (placental P-gp; GW20, from term value adjusted for placental surface area): 49.5 L/h | CLint,P-gp,placenta at GW20, lower than the corresponding value at GW38 (placental P-gp; GW20 versus GW38): 40% | fetal Kp,uu at GW20 as percent of that at GW38 (placental P-gp; m-f PBPK predicted): 64% | fetal UV plasma AUC0-12 at GW20 as percent of that at GW38 (placental P-gp; m-f PBPK predicted): 38% | fetal plasma Cmax at GW20 as percent of that at GW38 (placental P-gp; m-f PBPK predicted): 41% | CLint,PD,placenta [4]: 127 L/h | Papp (P-gp [5]): 12.5 ×10⁻⁶ cm/s | solubility [2]: 3 µM (≈ 1.89 µg/mL) | observed increase in maternal clearance in pregnancy [6]: 1.4 fold

Cc1ncc2n1-c1ccc(Cl)cc1C(c1ccccc1F)=NC2 [MDZ, midazolam]
CLint,PD,placenta [7]: 500 L/h | Papp (MDCKII or Caco-2 cells): 49 ×10⁻⁶ cm/s

C=C[C@H]1C[N@@]2CC[C@H]1C[C@@H]2[C@@H](O)c1ccnc2ccc(OC)cc12 [QND, Quinidine]
efflux ratio at 3 µM (P-gp [5]): 11.1 ± 2.5

— article PMC8626637, “Successful Prediction of Human Fetal Exposure to P-Glycoprotein Substrate Drugs Using the Proteomics-Informed Relative Expression Factor Approach and PBPK Modeling and Simulation” (Drug Metabolism and Disposition, 2021)
